Data: patent US20140303078A1, “MODULATION OF PANCREATIC BETA CELL PROLIFERATION” (President and Fellows of Harvard College, priority 2011, published 2014)
Where two headings read alike, the source gives them in different places. Ends that are not written are not given here.

Experiments:
[1] = test system: pancreatic beta cells; assay: S661 once daily in normal mice, beta cell replication by flow cytometry; assay type: in vivo, C57Bl/6 mice; conditions: S661 1 mg/kg s.c. once daily, 4 days
Method: FIG. 13 is a bar graph showing beta cell replication after repeated dosing of S661 in normal mice. Increased beta cell replication with S661 treatment is shown as a percentage of replication. Replication was analyzed by flow cytometry. The control in these experiments is a vehicle without S661. (*** p<0.001; Student's T-Test)
In another study, S661 was administered subcutaneously in vehicle to C57Bl/6 mice as once daily injections of 1 mg/kg bodyweight for a period of 4 days. In parallel BrdU was administered once daily at a dose of 100 mg/kg for the same period. At the fifth day the pancreas was removed and the replication of beta cell was measured by flow cytometry.

[2] = test system: pancreatic beta cells; assay: S661 repeated dosing in diet-induced obesity (DIO) mice, BrdU immunohistochemistry; assay type: in vivo, C57Bl/6 mice (DIO); conditions: S661 3 times 1 mg/kg or 0.125 mg/kg s.c., 4 days
Method: Increased beta cell replication with S661 treatment is shown as percent replication; there was no effect on non-beta cell replication. […] Immunohistochemistry was performed to analyze replication and islet area. (* p<0.05; ** p<0.01; Student's T-Test)
C57Bl/6 mice were fed a high fat diet for 17 weeks. S661 was administered subcutaneously in vehicle to DIO mice at doses of 3 times 1 mg/kg or 0.125 mg/kg bodyweight for a period of 4 days. In parallel BrdU was administered once daily at a dose of 100 mg/kg for the same period. At the fifth day the pancreas was removed and fixed in PFA. Paraffin embedded sections were stained for insulin, DAPI and BrdU. The incorporation of BrdU in replicating cells was analyzed using an automated script on images generated on a Zeiss Axioimager Z2.

[3] = obese rats, previous reports; cited from earlier work
[4] = test system: pancreatic beta cells; assay: S661 repeated dosing in normal mice, BrdU incorporation by immunohistochemistry; assay type: in vivo, C57Bl/6 mice; conditions: 4 days
Method: FIG. 12 is a bar graph showing beta cell replication after repeated dosing of S661 in the pancreas of normal mice. Increased replication is shown as a fold increase compared to vehicle rate. Replication was analyzed by immunohistochemistry. The control in these experiments is a vehicle without S661.
In a study, S661 was administered subcutaneously in vehicle to C57Bl/6 mice 3 times daily at the following doses 1 mg/kg; 0.5 mg/kg; 0.25 mg/kg or 0.125 mg/kg bodyweight for a period of 4 days. In parallel BrdU was administered once daily at a dose of 100 mg/kg for the same period. At the fifth day the pancreas was removed and fixed in PFA. Paraffin embedded sections were stained for insulin, DAPI and BrdU. The incorporation of BrdU in replicating beta cells was analyzed using an automated script on images generated on a Zeiss Axioimager Z2.

[5] = test system: pancreatic beta cells; assay: S961 treatment of mice, beta cell replication (Ki67/insulin immunostaining of pancreas); assay type: in vivo; conditions: 0.125 to 1 μMol/Kg/week, vs vehicle
Description: The white arrows point to replicating beta cells. FIG. 1C is a bar graph showing Ki67+/insulin+% after treatment for 7 days with increasing doses (from 0.125 μMol/Kg/week to 1 μMol/Kg/week) of S961. […] The control in these experiments is vehicle without S961. To count the Ki67+/insulin+ percentage and the beta cell area/pancreas area, the whole pancreas was cryosectioned and immunostained, and the standard graph analysis tools such as Metamorph and Photoshop were used for the quantification.
As described herein, administration of a low dose of insulin receptor antagonist S961 to a mammal produces an increase in beta cell replication (FIG. 1). Following injection of S961, gene expression in liver, muscle, and fat was analyzed because these tissues are involved in carbohydrate storage and metabolism. Of particular interest as a result of this analysis was mouse gene EG624219.

[6] = test system: TD26 (EG624219) mRNA; assay: TD26 mRNA expression in tissues of mice treated with S961 for 7 days; assay type: in vivo; conditions: liver and fat
Description: Genes close to the diagonal line show similar expression values in treated and untreated liver. […] TD26 expression increases in the liver and fat upon S961 treatment. […] The presumptive signal peptide is included at the N-terminus. […] Hepa1-6 cells have been transfected with a plasmid carrying the gene for TD26 fused to a Myc-tag. The cells were stained with myc antibody.

[7] = Blood glucose levels after administration of S961; assay type: in vivo
Description: As used herein, low doses of S961 will typically be less than 1 μMol/Kg/week, preferably from 0.125 μMol/Kg/week to 0.5 μMol/Kg/week. However it will be understood that increased doses may be useful as well, particularly if utilized in conjunction with an anti-hyperglycemic agent.

| Substance | increase in the percentage of beta cell replication as compared to vehicle [1] [fold] | beta cell replication [2] | islet area relative to total pancreas area [2] | non-beta cell replication [2] | blood glucose levels [3] | increase in β-cell replication in comparison to vehicle ([4]; S661 0.125 mg/kg s.c. 3 times daily) [fold] | increase in β-cell replication in comparison to vehicle ([4]; S661 1 mg/kg s.c. 3 times daily) [fold] | beta cell replication (Ki67+/insulin+) ([5]; treatment for 7 to 10 days) | beta cell area/pancreas area ([5]; treatment for 7 days) | relative expression of TD26 mRNA [6] | blood glucose levels ([7]; increasing doses of S961) | blood glucose levels ([7]; low doses of S961) |
| --- | --- | --- | --- | --- | --- | --- | --- | --- | --- | --- | --- | --- |
| S661: 43 amino acid peptide insulin receptor antagonist, SEQ ID NO: 16 (GSLDESFYDWFERQLGGGSGGSSLEEEWAQIQCEVWGRGCPSY), C-terminus is an amide (GSLDESFYDWFERQLGGGSGGSSLEEEWAQIQCEVWGRGCPSY-NH2; cysteine pairing not given here) | ~5 | increased amount of beta cell replication | increased islet area relative to total pancreas area | does not increase non-beta cell replication | marked increase in blood glucose levels | 2 | 5 |  |  |  |  |  |
| S961: 43 amino acid peptide insulin receptor antagonist, SEQ ID NO: 16 (GSLDESFYDWFERQLGGGSGGSSLEEEWAQIQCEVWGRGCPSY), C-terminus is an acid (GSLDESFYDWFERQLGGGSGGSSLEEEWAQIQCEVWGRGCPSY-OH; cysteine pairing not given here) |  |  |  |  |  |  |  | induces beta cell replication | significant increase | increases | blood glucose levels increase | does not increase blood glucose levels |
